Laboratory results: patent US20250382305A1 (PTC THERAPEUTICS, INC., priority 2022, published 2025)

Tests used:
[1] = test system: Total ATXN3 (tATXN3) protein; experiment: Endogenous Total ATXN3 (tATXN3) Protein Assay (MSD immunoassay of cell lysates); assay type: cell-based; conditions: average IC50, total ATXN3 protein in cell lysate after 48 h with compound (Table 1)
Procedure, shortened: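 By electrochemiluminescent MSD sandwich immunoassay (mouse monoclonal capture, rabbit monoclonal and SULFO-TAG anti-rabbit detection), endogenous ATXN3 was quantified in lysates of cells treated 48 h at 37° C at 10,000 cells/well. Treatment used a 7-point 3.16-fold duplicate dilution series, with average IC50 grouped into star categories.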

ATXN3 pre-mRNA = experiment: RT-qPCR Assay to Quantify Exon 4 Skipping in ATXN3 pre-mRNA in Cells; assay type: cell-based; conditions: percent exon 4 skipping in ATXN3 pre-mRNA, RT-qPCR of cell lysates; average IC50
Procedure, shortened: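 IC50 derives from a dose-response fit of percent exon 4 skipping, quantified by RT-qPCR on crude lysates. Compounds tested as 7-point 3.16-fold dilutions in duplicate; cells (10,000/well) were exposed for 24 h at 37 °C before lysis.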

| Compound | IC50 [1] | IC50 (ATXN3 pre-mRNA) |
| --- | --- | --- |
| N[C@@H]1CC=CC[C@H]1c1sc2c(NCc3cccs3)cc(Cl)nc2c1I.N[C@H]1CC=CC[C@@H]1c1sc2c(NCc3cccs3)cc(Cl)nc2c1I (mixture of isomers) [Compound 209, 2-((1R,6R)-6-aminocyclohex-3-en-1-yl)-5-chloro-3-iodo-N-(thiophen-2-ylmethyl)thieno[3,2-b]pyridin-7-amine and 2-((1S,6S)-6-aminocyclohex-3-en-1-yl)-5-chloro-3-iodo-N-(thiophen-2-ylmethyl)thieno[3,2-b]pyridin-7-amine] | ≤ 30 nM | ≤ 30 nM |
| N[C@@H]1CCCC[C@H]1c1sc2c(NCc3cccs3)cc(Cl)nc2c1C1CC1 [Compound 137, 2-((1R,2R)-2-aminocyclohexyl)-5-chloro-3-cyclopropyl-N-(thiophen-2-ylmethyl)thieno[3,2-b]pyridin-7-amine] | > 1000 nM | > 1000 nM |
| Cc1c([C@@H]2OCCC[C@H]2N)sc2c(NCc3cccs3)cc(Cl)nc12 (single isomer, unassigned) [Compound 45, 2-((2R,3R)-3-aminotetrahydro-2H-pyran-2-yl)-5-chloro-3-methyl-N-(thiophen-2-ylmethyl)thieno[3,2-b]pyridin-7-amine or 2-((2S,3S)-3-aminotetrahydro-2H-pyran-2-yl)-5-chloro-3-methyl-N-(thiophen-2-ylmethyl)thieno[3,2-b]pyridin-7-amine] | ≤ 30 nM | ≤ 30 nM |
| N[C@H]1CC=CC[C@@H]1c1sc2c(NCc3cccs3)cc(Cl)nc2c1I [Compound 176, 2-((1S,6S)-6-aminocyclohex-3-en-1-yl)-5-chloro-3-iodo-N-(thiophen-2-ylmethyl)thieno[3,2-b]pyridin-7-amine] | ≤ 30 nM | ≤ 30 nM |
| N[C@@H]1CCCO[C@H]1c1sc2c(NCc3ccco3)cc(Cl)nc2c1Cl [Compound 119, 2-((2R,3R)-3-aminotetrahydro-2H-pyran-2-yl)-3,5-dichloro-N-(furan-2-ylmethyl)thieno[3,2-b]pyridin-7-amine] | > 1000 nM | > 1000 nM |
| N[C@H]1CC=CC[C@@H]1c1sc2c(NCc3ccccc3F)cc(Cl)nc2c1Br [Compound 287, 2-((1S,6S)-6-aminocyclohex-3-en-1-yl)-3-bromo-5-chloro-N-(2-fluorobenzyl)thieno[3,2-b]pyridin-7-amine] | 30 to 300 nM | 30 to 300 nM |
| N[C@@H]1CC=CC[C@H]1c1sc2c(NCc3nccs3)cc(Cl)nc2c1Cl [Compound 380, 2-((1R,6R)-6-aminocyclohex-3-en-1-yl)-3,5-dichloro-N-(thiazol-2-ylmethyl)thieno[3,2-b]pyridin-7-amine] | 30 to 300 nM | 30 to 300 nM |
| N[C@@H]1CCCO[C@H]1c1sc2c(NCc3ccccc3)cc(Cl)nc2c1Br [Compound 113, 2-((2R,3R)-3-aminotetrahydro-2H-pyran-2-yl)-N-benzyl-3-bromo-5-chlorothieno[3,2-b]pyridin-7-amine] | > 1000 nM | > 1000 nM |
| N[C@@H]1CCCCCC[C@H]1c1sc2c(NCc3cccs3)cc(Cl)nc2c1Cl [Compound 97, 2-((1R,2R)-2-aminocyclooctyl)-3,5-dichloro-N-(thiophen-2-ylmethyl)thieno[3,2-b]pyridin-7-amine] | > 1000 nM | > 1000 nM |
| N[C@@H]1CCC[C@H]1c1cc2nc(Cl)cc(NCc3cccs3)c2s1 [Compound 112, 2-((1R,2R)-2-aminocyclopentyl)-5-chloro-N-(thiophen-2-ylmethyl)thieno[3,2-b]pyridin-7-amine] | > 1000 nM | > 1000 nM |
| Cc1c([C@H]2CC=C(C(=O)Nc3ccccc3)C[C@@H]2N)sc2c(NCc3cccs3)cc(Cl)nc12 [Compound 353, (4S,5S)-5-amino-4-(5-chloro-3-methyl-7-((thiophen-2-ylmethyl)amino)thieno[3,2-b]pyridin-2-yl)-N-phenylcyclohex-1-ene-1-carboxamide] | 30 to 300 nM | 30 to 300 nM |
| Cc1c([C@@H]2CCCCC[C@@H]2N)sc2c(NCc3cccs3)cc(Cl)nc12 [Compound 82, 2-((1R,2S)-2-aminocycloheptyl)-5-chloro-3-methyl-N-(thiophen-2-ylmethyl)thieno[3,2-b]pyridin-7-amine] | 300 to 1000 nM | 300 to 1000 nM |
| Cc1c([C@@H]2CCCC[C@H]2N)sc2c(NCc3ccco3)cc(Cl)nc12 [Compound 401, 2-((1R,2R)-2-aminocyclohexyl)-5-chloro-N-(furan-2-ylmethyl)-3-methylthieno[3,2-b]pyridin-7-amine] | > 1000 nM | 300 to 1000 nM |
| CCc1c([C@@H]2CCCCC[C@H]2N)sc2c(NCc3cccs3)cc(Cl)nc12 (single isomer, unassigned) [Compound 86, 2-((1R,2R)-2-aminocycloheptyl)-5-chloro-3-ethyl-N-(thiophen-2-ylmethyl)thieno[3,2-b]pyridin-7-amine or 2-((1S,2S)-2-aminocycloheptyl)-5-chloro-3-ethyl-N-(thiophen-2-ylmethyl)thieno[3,2-b]pyridin-7-amine] | > 1000 nM | > 1000 nM |
| C#Cc1c([C@@H]2CCCC[C@H]2N)sc2c(NCc3ccccc3)cc(Cl)nc12 [Compound 344, 2-((1R,2R)-2-aminocyclohexyl)-N-benzyl-5-chloro-3-ethynylthieno[3,2-b]pyridin-7-amine] | 30 to 300 nM | 30 to 300 nM |
| 6-((1S,6S)-6-aminocyclohex-3-en-1-yl-2,2,3,4,5,5-d6)-7-bromo-2-chloro-N-(thiophen-2-ylmethyl)thieno[3,2-d]pyrimidin-4-amine [Compound 183] | ≤ 30 nM | ≤ 30 nM |
| N[C@H]1CCCC[C@]1(F)c1sc2c(NCc3ccco3)cc(Cl)nc2c1Cl [Compound 38, 2-((1R,2S)-2-amino-1-fluorocyclohexyl)-3,5-dichloro-N-(furan-2-ylmethyl)thieno[3,2-b]pyridin-7-amine] | 30 to 300 nM | 30 to 300 nM |
| Cc1c([C@@H]2CC=CC[C@H]2N)sc2c(NCc3nccs3)nc(Cl)nc12 [Compound 441, 6-((1R,6R)-6-aminocyclohex-3-en-1-yl)-2-chloro-7-methyl-N-(thiazol-2-ylmethyl)thieno[3,2-d]pyrimidin-4-amine] | 30 to 300 nM | 30 to 300 nM |
| COc1ncccc1C#Cc1c([C@H]2CC=CC[C@@H]2N)sc2c(NCc3cccs3)cc(Cl)nc12 [Compound 394, 2-((1S,6S)-6-aminocyclohex-3-en-1-yl)-5-chloro-3-((2-methoxypyridin-3-yl)ethynyl)-N-(thiophen-2-ylmethyl)thieno[3,2-b]pyridin-7-amine] | 300 to 1000 nM | 300 to 1000 nM |
| 2-((1R,2R)-2-aminocyclohexyl)-3,5-dichloro-1-(difluoromethyl)-N-(thiophen-2-ylmethyl)-1H-pyrrolo[3,2-b]pyridin-7-amine and 2-((1S,2S)-2-aminocyclohexyl)-3,5-dichloro-1-(difluoromethyl)-N-(thiophen-2-ylmethyl)-1H-pyrrolo[3,2-b]pyridin-7-amine [Compound 421] | ≤ 30 nM | ≤ 30 nM |
| 2-((1R,6R)-6-aminocyclohex-3-en-1-yl-2,2,3,4,5,5-d6)-3,5-dichloro-N-(furan-2-ylmethyl)thieno[3,2-b]pyridin-7-amine and 2-((1S,6S)-6-aminocyclohex-3-en-1-yl-2,2,3,4,5,5-d6)-3,5-dichloro-N-(furan-2-ylmethyl)thieno[3,2-b]pyridin-7-amine [Compound 180] | ≤ 30 nM | ≤ 30 nM |
